Measured values: patent publication US8030336B2, “Nicotinamide-based kinase inhibitors” (YM Biosciences Australia Pty Ltd, priority 2002, dated 2011)

Experiments:
Format in all cases: biochemical
[1] = target: T1, human JAK2 (Homo sapiens, UniProt O60674); assay: JAK2 kinase assay (ELISA or Alphascreen); details: read-out: Jak2 inhibition of enzyme activity
T1 construct: The kinase domain of human JAK2 was amplified from U937mRNA; His tag (from the pFastBac HTc vector) (N); made in house; host or cells: baculovirus; Sf9 for virus, High Five insect cells for production
T1 sequence (O60674 849-1124 limits assumed): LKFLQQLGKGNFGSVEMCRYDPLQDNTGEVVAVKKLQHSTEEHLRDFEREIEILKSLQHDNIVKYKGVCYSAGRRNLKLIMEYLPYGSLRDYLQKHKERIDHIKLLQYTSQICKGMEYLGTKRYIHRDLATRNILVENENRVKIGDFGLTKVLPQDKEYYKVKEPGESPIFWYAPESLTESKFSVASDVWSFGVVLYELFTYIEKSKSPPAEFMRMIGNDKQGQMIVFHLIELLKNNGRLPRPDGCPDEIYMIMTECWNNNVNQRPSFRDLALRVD
Procedure, shortened: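 His-tagged human JAK2 kinase domain from baculovirus-infected insect cells, ~1.5 μg per assay, in 50 mM HEPES pH 7.5, 10 mM MgCl2, 150 mM NaCl, with 10 μM–1 mM ATP and 5 μM biotinylated peptide substrate. Phosphotyrosine detected by PY20 ELISA or AlphaScreen.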

[2] = target: T2, fms (Homo sapiens, UniProt P07333); assay: fms kinase assay (ELISA or Alphascreen); details: read-out: fms inhibition of enzyme activity
T2 sequence (P07333 582-910 limits assumed): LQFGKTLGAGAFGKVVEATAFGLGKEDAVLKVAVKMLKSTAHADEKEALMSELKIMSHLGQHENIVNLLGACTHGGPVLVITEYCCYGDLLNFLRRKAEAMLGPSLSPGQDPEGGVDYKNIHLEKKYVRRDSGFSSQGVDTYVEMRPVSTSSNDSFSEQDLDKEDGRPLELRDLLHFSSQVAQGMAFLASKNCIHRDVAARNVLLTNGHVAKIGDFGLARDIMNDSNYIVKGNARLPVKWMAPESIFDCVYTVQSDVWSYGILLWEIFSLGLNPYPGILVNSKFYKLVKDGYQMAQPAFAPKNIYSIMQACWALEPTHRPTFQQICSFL
Procedure, shortened: (§1)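 PTK domain ~1.5 μg; 50 mM HEPES pH 7.5, 10 mM MgCl2, 150 mM NaCl; ATP 10 μM-1 mM; biotinylated peptide 5 μM final. Read-out: avidin-capture ELISA with PY20 or Alphascreen pTyr acceptor/streptavidin donor beads.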

[3] = target: T3, Zap70 (Homo sapiens, UniProt P43403); assay: Zap70 kinase assay (ELISA or Alphascreen); details: read-out: Zap70 inhibition of enzyme activity
T3 sequence (P43403 338-600 limits assumed): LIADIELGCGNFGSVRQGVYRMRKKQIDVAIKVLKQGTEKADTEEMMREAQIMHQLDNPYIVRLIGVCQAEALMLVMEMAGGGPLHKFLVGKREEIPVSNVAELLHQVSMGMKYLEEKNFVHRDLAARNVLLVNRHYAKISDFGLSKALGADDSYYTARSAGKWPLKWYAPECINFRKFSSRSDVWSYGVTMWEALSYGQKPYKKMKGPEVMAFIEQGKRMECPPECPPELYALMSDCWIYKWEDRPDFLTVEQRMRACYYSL
Procedure, shortened: as §1

[4] = target: T4, human JAK3 (Homo sapiens, UniProt P52333); assay: JAK3 kinase assay (ELISA or Alphascreen); details: read-out: Jak3 inhibition of enzyme activity
T4 construct: The kinase domain of human JAK3 was amplified from U937mRNA; His tag (from the pFastBac HTb vector) (N); made in house; host or cells: baculovirus; Sf9 for virus, High Five insect cells for production
T4 sequence (P52333 822-1111 limits assumed): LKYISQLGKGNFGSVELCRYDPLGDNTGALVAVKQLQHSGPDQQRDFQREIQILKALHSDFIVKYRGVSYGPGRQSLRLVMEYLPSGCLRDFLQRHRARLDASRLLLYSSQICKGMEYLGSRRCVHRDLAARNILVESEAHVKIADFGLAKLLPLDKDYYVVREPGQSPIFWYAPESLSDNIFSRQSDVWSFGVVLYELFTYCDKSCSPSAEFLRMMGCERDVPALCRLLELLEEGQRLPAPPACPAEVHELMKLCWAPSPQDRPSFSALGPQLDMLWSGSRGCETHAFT
Procedure, shortened: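 Read-out: anti-phosphotyrosine detection of a 5 μM biotin-peptide substrate, via PY20-peroxidase ELISA or Alphascreen beads. Enzyme was nickel-purified recombinant JAK3 kinase domain (~1.5 μg), with ATP at 10 μM-1 mM, pH 7.5 HEPES/MgCl2/NaCl.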

[5] = target: fes (Homo sapiens, UniProt P07332); assay: fes kinase assay (ELISA or Alphascreen); details: read-out: fes inhibition of enzyme activity
fes, sequence (P07332 561-822 limits assumed, species assumed): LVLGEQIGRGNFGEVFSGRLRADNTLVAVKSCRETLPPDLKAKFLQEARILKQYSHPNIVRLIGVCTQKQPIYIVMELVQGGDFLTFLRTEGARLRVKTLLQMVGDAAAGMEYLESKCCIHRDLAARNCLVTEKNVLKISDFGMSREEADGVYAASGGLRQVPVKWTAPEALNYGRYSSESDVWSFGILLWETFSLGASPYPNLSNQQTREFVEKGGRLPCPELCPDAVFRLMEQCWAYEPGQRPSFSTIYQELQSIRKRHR
Procedure, shortened: as §1

[6] = target: hck (Homo sapiens, UniProt P08631); assay: hck kinase assay (ELISA or Alphascreen); details: read-out: hck inhibition of enzyme activity
hck, sequence (P08631 262-515 limits assumed, species assumed): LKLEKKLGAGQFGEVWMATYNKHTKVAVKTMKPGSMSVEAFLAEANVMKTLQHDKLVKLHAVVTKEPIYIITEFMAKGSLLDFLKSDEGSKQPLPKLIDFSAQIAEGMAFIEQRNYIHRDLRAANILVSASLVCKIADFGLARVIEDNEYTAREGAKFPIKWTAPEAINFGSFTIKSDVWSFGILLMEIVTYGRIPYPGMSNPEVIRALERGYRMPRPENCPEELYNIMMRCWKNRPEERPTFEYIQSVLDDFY
Procedure, shortened: as §1

[7] = target: T5, abl (Homo sapiens, UniProt P00519); assay: abl kinase assay (ELISA or Alphascreen); details: read-out: abl inhibition of enzyme activity
T5 sequence (P00519 242-493 limits assumed): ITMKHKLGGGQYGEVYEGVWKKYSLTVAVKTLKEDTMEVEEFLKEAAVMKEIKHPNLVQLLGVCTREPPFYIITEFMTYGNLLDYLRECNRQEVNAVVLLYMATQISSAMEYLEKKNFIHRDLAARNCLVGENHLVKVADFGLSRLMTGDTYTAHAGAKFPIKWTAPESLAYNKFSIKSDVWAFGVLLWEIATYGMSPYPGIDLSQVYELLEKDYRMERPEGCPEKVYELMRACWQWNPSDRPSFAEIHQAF
Procedure, shortened: as §1

Compound | inhibition at 10 µM [1] [%] | inhibition at 10 µM [2] [%] | inhibition at 10 µM [3] [%] | inhibition at 10 µM [4] [%] | inhibition at 10 µM [5] [%] | inhibition at 10 µM [6] [%] | inhibition at 10 µM [7] [%]
COc1cc(CNC(=O)c2cncc(-c3cccc(OC)c3)c2)cc(OC)c1 | < 50 | < 50 | ≥ 50 | < 50 | < 50 | < 50 | < 50
COc1cc(-c2cncc(C(=O)Nc3ccccc3C)c2)cc(OC)c1OC | < 50 | ≥ 50 | < 50 | < 50 | < 50 | ≥ 50 | ≥ 50
CN(C)CCNC(=O)c1cncc(-c2ccc(F)cc2)c1 | < 50 | < 50 | < 50 | < 50 | < 50 | < 50 | < 50
Cc1cc(-c2cncc(C(=O)NCc3ccco3)c2)cc(C)c1O | < 50 | < 50 | ≥ 50 | < 50 | < 50 | < 50 | < 50
Cc1ccc(F)cc1NC(=O)c1cncc(-c2cccs2)c1 | < 50 | ≥ 50 | < 50 | < 50 | < 50 | ≥ 50 | < 50
Cc1cc(-c2cncc(C(=O)NCc3ccncc3)c2)cc(C)c1O | < 50 | ≥ 50 | < 50 | < 50 | < 50 | < 50 | < 50
COc1ccc(CNC(=O)c2cncc(-c3cc(C)c(O)c(C)c3)c2)cc1 |  | < 50 | < 50 | < 50 | < 50 | < 50 | < 50
COc1cccc(-c2cncc(C(=O)Nc3cc(C)ccc3C)c2)c1 | < 50 | < 50 | ≥ 50 | < 50 | < 50 | ≥ 50 | < 50
O=C(Nc1ccccc1)c1cncc(-c2cccnc2)c1 | < 50 | < 50 | ≥ 50 | < 50 | < 50 | < 50 | < 50
COc1cccc(-c2cncc(C(=O)NCc3ccc(C)cc3)c2)c1 | < 50 | < 50 | ≥ 50 | < 50 | < 50 | < 50 | < 50
COc1cc(CNC(=O)c2cncc(-c3cc(OC)c(OC)c(OC)c3Cl)c2)cc(OC)c1 | ≥ 50 | < 50 | ≥ 50 | < 50 | < 50 | < 50 | < 50
COc1cccc(-c2cncc(C(=O)NCCc3ccccc3)c2)c1 | < 50 | < 50 | ≥ 50 | < 50 | < 50 | < 50 | < 50
CC(C)C(CO)NC(=O)c1cncc(-c2ccc3c(c2)OCO3)c1 (stereo not shown) |  | < 50 | < 50 | < 50 | < 50 | < 50 | < 50
COc1cccc(-c2cncc(C(=O)N[C@@H](C)c3cccc(OC)c3)c2)c1 | < 50 | < 50 | ≥ 50 | < 50 | < 50 | < 50 | < 50
CC(C)NC(=O)c1cncc(-c2cccs2)c1 | < 50 | ≥ 50 | < 50 | < 50 | ≥ 50 | < 50 | < 50
O=C(Nc1ccccc1)c1cncc(-c2cccs2)c1 | < 50 | < 50 | < 50 | < 50 | ≥ 50 | < 50 | < 50
O=C(NCc1ccco1)c1cncc(-c2ccc(O)cc2)c1 | < 50 | ≥ 50 | < 50 | < 50 | < 50 | < 50 | < 50
COc1cc(-c2cncc(C(=O)OC(C)(C)C)c2)ccc1O | < 50 | ≥ 50 | < 50 | < 50 | < 50 | < 50 | < 50
CC(CCc1ccccc1)NC(=O)c1cncc(-c2cccs2)c1 (stereo not shown) | < 50 | < 50 | < 50 | < 50 | ≥ 50 | < 50 | < 50
COc1cc(-c2cncc(C(=O)Nc3ccccc3C)c2)c(Cl)c(OC)c1OC | < 50 | ≥ 50 | < 50 | < 50 | < 50 | ≥ 50 | < 50
CC(NC(=O)c1cncc(-c2cccnc2)c1)c1ccc(F)cc1 (stereo not shown) |  | < 50 | < 50 | < 50 | < 50 | < 50 | < 50
Cc1ccc(CNC(=O)c2cncc(-c3cccs3)c2)cc1 |  | < 50 | < 50 | < 50 | ≥ 50 | < 50 | < 50
COc1cccc(-c2cncc(C(=O)NCc3ccco3)c2)c1 | < 50 | < 50 | ≥ 50 | < 50 | < 50 | < 50 | < 50
CC(C)C(CO)NC(=O)c1cncc(-c2cccnc2)c1 (stereo not shown) |  | < 50 | < 50 | < 50 | < 50 | < 50 | < 50
COc1cc(-c2cncc(C(=O)Nc3cc(F)ccc3C)c2)c(Cl)c(OC)c1OC | < 50 | ≥ 50 | < 50 | < 50 | < 50 | ≥ 50 | < 50
O=C(Nc1ccc(N2CCOCC2)cc1)c1cncc(-c2cccs2)c1 | < 50 | < 50 | < 50 | < 50 | ≥ 50 | < 50 | < 50
COc1ccc(CNC(=O)c2cncc(-c3cccc(OC)c3)c2)cc1 | < 50 | < 50 | ≥ 50 | < 50 | < 50 | < 50 | < 50
